Laboratory results from PubChem BioAssay AID276 (DTP/NCI, 2004).
Values joined by “and” are separate entries in the source; they are usually repeats but may differ in a detail not shown here. Equal values may be shown once. Inconclusive results and toxic doses are left out. Residues, ends and D or L forms follow the SMILES beside them. *: point of attachment. Trt = c1ccc(C(c2ccccc2)(c2ccccc2)*)cc1; Cbz = O=C(OCc1ccccc1)*

Tested on: B6C3F1 mice, Lewis lung carcinoma iv, survival T/C
Experiment: NCI In Vivo Anticancer Drug Screen. Data for tumor model Lewis Lung Carcinoma (intravenous) in B6C3F1 mice
Details: endpoint: median survival time, schedule: Q01DX009 (ip), higher = longer survival
Outline: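 Tumors were transplanted into mice, which were then dosed with compound or vehicle. Survival was recorded in each group, and the treated figure was divided by the control figure.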

[1] = dose: 3.12 mg/kg/injection, vehicle: saline with Tween-80
[2] = dose: 6.25 mg/kg/injection, vehicle: saline with Tween-80
[3] = dose: 12.5 mg/kg/injection, vehicle: saline with Tween-80
[4] = dose: 25.0 mg/kg/injection, vehicle: saline with Tween-80
[5] = dose: 50.0 mg/kg/injection, vehicle: saline with Tween-80
[6] = dose: 100.0 mg/kg/injection, vehicle: saline with Tween-80

`COc1cccc2c1C(=O)c1c(O)c3c(c(O)c1C2=O)CC(O)(/C(C)=N/NC(=O)CCC(=O)N/N=C(\C)C1(O)Cc2c(O)c4c(c(O)c2C(OC2CC(N)C(O)C(C)O2)C1)C(=O)c1c(OC)cccc1C4=O)CC3OC1CC(N)C(O)C(C)O1` (stereo not given) was tested, and the T/C (dose: 0.75 mg/kg/injection, vehicle: water) was 99 % of control and 100 % of control, the T/C (dose: 1.5 mg/kg/injection, vehicle: water) was 103 % of control and 105 % of control and the T/C (dose: 3.0 mg/kg/injection, vehicle: water) was 101 % of control. The T/C (dose: 6.0 mg/kg/injection, vehicle: water) was 105 % of control and 260 % of control, the T/C (dose: 12.0 mg/kg/injection, vehicle: water) was 101 % of control and 113 % of control and the T/C (dose: 24.0 mg/kg/injection, vehicle: water) was 104 % of control.

In the case of `CCCCCn1c(C)cc(/C=C\c2ccc3cc(C)ccc3[n+]2C)c1C`, the T/C (dose: 37.5 micrograms/kg/injection, vehicle: Klucel (hydroxypropylcellulose) (HPC)) is reported as 107 % of control, the T/C (dose: 75.0 micrograms/kg/injection, vehicle: Klucel (hydroxypropylcellulose) (HPC)) is reported as 109 % of control and the T/C (dose: 150.0 micrograms/kg/injection, vehicle: Klucel (hydroxypropylcellulose) (HPC)) is reported as 104 % of control. The T/C (dose: 300.0 micrograms/kg/injection, vehicle: Klucel (hydroxypropylcellulose) (HPC)) was 97 % of control.

With `NC(=O)/C=C/C(=O)c1c(Cl)cccc1Cl` the T/C (dose: 0.79 mg/kg/injection, vehicle: saline with Tween-80) was 111 % of control, the T/C (dose: 1.56 mg/kg/injection, vehicle: saline with Tween-80) was 88 % of control and the T/C [1] was 117 % of control. For the same compound, the T/C [2] was 103 % of control and the T/C [3] was 108 % of control.

With `NC(C(=O)O)c1ccc(CBr)cc1` (stereo not given) the T/C [3] was 97 % of control, the T/C [4] was 100 % of control and the T/C [5] was 105 % of control. The T/C [6] was 93 % of control.

With `COc1cc2c(c(OC)c1OC)-c1c(cc3c(c1OC)OCO3)CC(C)C(C)(O)C2OC(=O)c1ccccc1` (stereo not given) the T/C (dose: 6.25 mg/kg/injection, vehicle: saline + alcohol) was 93 % of control, the T/C (dose: 12.5 mg/kg/injection, vehicle: saline + alcohol) was 96 % of control and the T/C (dose: 25.0 mg/kg/injection, vehicle: saline + alcohol) was 107 % of control. For the same compound, the T/C (dose: 50.0 mg/kg/injection, vehicle: saline + alcohol) was 102 % of control, the T/C (dose: 100.0 mg/kg/injection, vehicle: saline + alcohol) was 106 % of control and the T/C (dose: 200.0 mg/kg/injection, vehicle: saline + alcohol) was 103 % of control.

With `ClC1=C(Cl)C(Cl)=C(Cl)C1=Cc1ccccc1` the T/C [1] was 94 % of control and 101 % of control, the T/C [2] was 98 % of control and 108 % of control and the T/C [3] was 98 % of control. The T/C [4] was 97 % of control and the T/C [5] was 105 % of control.

In the case of `O=S1(=O)C=C(c2ccccc2)C(c2ccccc2)=C1`, the T/C [1] is reported as 101 % of control, the T/C [2] is reported as 89 % of control and the T/C [3] is reported as 101 % of control. The T/C [4] was 110 % of control.

For `C/C=C(\C)c1cc(=O)c2c(C)cc3c(c2o1)C(=O)c1c(O)c(C2CC(C)(N(C)C)C(O)C(C)O2)cc(C2CC(N(C)C)C(O)C(C)O2)c1C3=O` (stereo not given), the T/C (dose: 31.25 micrograms/kg/injection, vehicle: saline) was 98 % of control, the T/C (dose: 62.5 micrograms/kg/injection, vehicle: saline) was 101 % of control and the T/C (dose: 125.0 micrograms/kg/injection, vehicle: saline) was 101 % of control. The T/C (dose: 250.0 micrograms/kg/injection, vehicle: saline) was 98 % of control.

In the case of `CNc1cccnc1/C=N/NC(N)=S`, the T/C [3] is reported as 104 % of control, the T/C [4] is reported as 122 % of control and the T/C [5] is reported as 90 % of control.

With `C=C1C(=O)OC2CC(C)C3C4OC4C(O)C3(C)C(O)C12` (stereo not given) the T/C (dose: 5.62 mg/kg/injection, vehicle: saline) was 100 % of control, the T/C (dose: 11.25 mg/kg/injection, vehicle: saline) was 102 % of control and the T/C (dose: 22.5 mg/kg/injection, vehicle: saline) was 100 % of control. The T/C (dose: 45.0 mg/kg/injection, vehicle: saline) was 108 % of control and the T/C (dose: 90.0 mg/kg/injection, vehicle: saline) was 105 % of control.

For `CC(=O)Oc1[nH]c(=O)c2cccc3c2c1CCC3`, the T/C [4] was 104 % of control, the T/C [5] was 122 % of control and the T/C [6] was 102 % of control. The T/C (dose: 200.0 mg/kg/injection, vehicle: saline with Tween-80) was 107 % of control and the T/C (dose: 400.0 mg/kg/injection, vehicle: saline with Tween-80) was 105 % of control.

For `O=CC(S)CO` (stereo not given), the T/C (dose: 12.5 mg/kg/injection, vehicle: saline) was 105 % of control and 107 % of control, the T/C (dose: 25.0 mg/kg/injection, vehicle: saline) was 95 % of control and 107 % of control and the T/C (dose: 50.0 mg/kg/injection, vehicle: saline) was 101 % of control and 102 % of control. For the same compound, the T/C (dose: 100.0 mg/kg/injection, vehicle: saline) was 101 % of control and 112 % of control and the T/C (dose: 200.0 mg/kg/injection, vehicle: saline) was 96 % of control and 102 % of control.

`O=C1CCCCC1C(=O)C(F)(F)F` (stereo not given) was tested, and the T/C (dose: 12.5 mg/kg/injection, vehicle: saline + Tween-80 + alcohol) was 96 % of control, the T/C (dose: 25.0 mg/kg/injection, vehicle: saline + Tween-80 + alcohol) was 111 % of control and the T/C (dose: 50.0 mg/kg/injection, vehicle: saline + Tween-80 + alcohol) was 94 % of control.

With `COc1ccc2nonc2c1` the T/C [2] was 107 % of control and 112 % of control, the T/C [3] was 102 % of control and 118 % of control and the T/C [4] was 101 % of control and 107 % of control. For the same compound, the T/C [5] was 106 % of control and 109 % of control.

In the case of `COC(=O)C(CSC(c1ccccc1)(c1ccccc1)c1ccccc1)NC(=O)C(CC(N)=O)NC(=O)OCc1ccccc1` (stereo not drawn) (Cbz-Asn-Cys(Trt)-OMe; configuration not given here), the T/C (dose: 12.5 mg/kg/injection, vehicle: distilled water + Tween-80) is reported as 97 % of control, the T/C (dose: 25.0 mg/kg/injection, vehicle: distilled water + Tween-80) is reported as 103 % of control and the T/C (dose: 50.0 mg/kg/injection, vehicle: distilled water + Tween-80) is reported as 103 % of control. The T/C (dose: 100.0 mg/kg/injection, vehicle: distilled water + Tween-80) was 98 % of control, the T/C (dose: 200.0 mg/kg/injection, vehicle: distilled water + Tween-80) was 97 % of control and the T/C (dose: 400.0 mg/kg/injection, vehicle: distilled water + Tween-80) was 98 % of control.

In the case of `CC(C)=CC(=O)OC1C2C(C)=CC(=O)C(O)C2(C)C2C3(O)OCC24C(CC(=O)OC14)C(C)C3O` (stereo not given), the T/C (dose: 0.25 mg/kg/injection, vehicle: distilled water + Tween-80) is reported as 107 % of control, the T/C (dose: 0.5 mg/kg/injection, vehicle: distilled water + Tween-80) is reported as 98 % of control and the T/C (dose: 1.0 mg/kg/injection, vehicle: distilled water + Tween-80) is reported as 102 % of control. For the same compound, the T/C (dose: 2.0 mg/kg/injection, vehicle: distilled water + Tween-80) was 98 % of control.

In the case of `O=NN(CCF)C(=O)NC1CCCCC1`, the T/C (dose: 2.5 mg/kg/injection, vehicle: saline with Tween-80) is reported as 109 % of control, the T/C (dose: 3.12 mg/kg/injection, vehicle: Klucel (hydroxypropylcellulose) (HPC)) is reported as 107 % of control and the T/C (dose: 5.0 mg/kg/injection, vehicle: saline with Tween-80) is reported as 109 % of control. The T/C (dose: 10.0 mg/kg/injection, vehicle: saline with Tween-80) was 155 % of control, the T/C (dose: 12.5 mg/kg/injection, vehicle: Klucel (hydroxypropylcellulose) (HPC)) was 269 % of control and 291 % of control and the T/C (dose: 20.0 mg/kg/injection, vehicle: saline with Tween-80) was 229 % of control. For the same compound, the T/C (dose: 25.0 mg/kg/injection, vehicle: Klucel (hydroxypropylcellulose) (HPC)) was 227 % of control.

With `O=C1CN(Cc2ccc3c(c2)OCO3)NO1` the T/C [2] was 104 % of control and 109 % of control, the T/C [3] was 106 % of control and 87 % of control and the T/C [4] was 104 % of control and 123 % of control. The T/C [5] was 104 % of control and 111 % of control and the T/C [6] was 123 % of control and 86 % of control.

`Cn1c(=O)[nH]c2nncnc2c1=O` was tested, and the T/C (dose: 3.12 mg/kg/injection, vehicle: water) was 97 % of control, the T/C (dose: 6.25 mg/kg/injection, vehicle: water) was 105 % of control and the T/C (dose: 12.5 mg/kg/injection, vehicle: water) was 102 % of control. For the same compound, the T/C (dose: 25.0 mg/kg/injection, vehicle: water) was 94 % of control and the T/C (dose: 50.0 mg/kg/injection, vehicle: water) was 90 % of control.
